Reference: ChEMBL document CHEMBL4823324, “Discovery of BMS-986318, a Potent Nonbile Acid FXR Agonist for the Treatment of Nonalcoholic Steatohepatitis” (ACS Med Chem Lett, 2021)

Columns and labels:
[1] = Half life in C57B6 mouse at 1 mg/kg, iv; type: ADME, organism-based; details: in vivo
[2] = biological target: T1, Nuclear receptor ROR-gamma (Homo sapiens, UniProt P51449); experiment: Displacement of [3H]25-hydroxycholesterol from human N-terminal His-tagged RORgammaT LBD (262 to 508 residues) expressed in Escherichia coli preincubated for 10 mins followed by addition [3H]25-OH cholesterol and measured after 10 mins by scintillation proximity assay
T1 sequence (P51449 whole entry): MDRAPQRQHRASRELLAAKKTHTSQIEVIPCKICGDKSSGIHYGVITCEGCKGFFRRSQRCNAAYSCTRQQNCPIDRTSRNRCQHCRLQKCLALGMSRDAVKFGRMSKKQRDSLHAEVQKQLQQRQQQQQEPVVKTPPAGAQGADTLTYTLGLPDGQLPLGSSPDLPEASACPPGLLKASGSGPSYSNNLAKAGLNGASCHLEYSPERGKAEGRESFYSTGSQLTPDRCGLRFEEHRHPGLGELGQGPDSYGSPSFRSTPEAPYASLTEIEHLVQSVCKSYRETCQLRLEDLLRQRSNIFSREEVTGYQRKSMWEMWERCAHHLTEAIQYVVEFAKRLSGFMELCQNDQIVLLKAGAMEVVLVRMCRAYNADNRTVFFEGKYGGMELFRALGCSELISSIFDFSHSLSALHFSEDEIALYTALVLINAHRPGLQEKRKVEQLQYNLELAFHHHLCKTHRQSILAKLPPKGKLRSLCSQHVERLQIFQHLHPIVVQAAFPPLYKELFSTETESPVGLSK

[3] = biological target: T1, Nuclear receptor ROR-gamma; experiment: Antagonist activity at human RORgammaT co-expressed with Gal4-luciferase reporter in human Jurkat cells incubated for 18 hrs by Steady-Glo luciferase reporter based luminescence analysis; type: cell-based
[4] = Oral bioavailability in C57B6 mouse at 2 mg/kg administered as suspension; type: ADME, organism-based; details: in vivo
[5] = Cmax in C57B6 mouse at 2 mg/kg, po administered as solution; type: ADME, organism-based; set-up: route oral, dose 2 mg/kg; details: in vivo
[6] = AUC in C57B6 mouse at 2 mg/kg, po administered as suspension; type: ADME, organism-based; set-up: dose 2 mg/kg; details: in vivo
[7] = Metabolic stability in mouse liver microsomes assessed as half life; type: ADME, Microsome
[8] = biological target: T2, Nuclear receptor ROR-alpha (Homo sapiens, UniProt P35398); experiment: Antagonist activity at human RORalpha (272 to 557 residues) co-expressed with Gal4-luciferase reporter in human Jurkat cells incubated for 18 hrs by Steady-Glo luciferase reporter based luminescence analysis; type: cell-based
T2 sequence (P35398 whole entry): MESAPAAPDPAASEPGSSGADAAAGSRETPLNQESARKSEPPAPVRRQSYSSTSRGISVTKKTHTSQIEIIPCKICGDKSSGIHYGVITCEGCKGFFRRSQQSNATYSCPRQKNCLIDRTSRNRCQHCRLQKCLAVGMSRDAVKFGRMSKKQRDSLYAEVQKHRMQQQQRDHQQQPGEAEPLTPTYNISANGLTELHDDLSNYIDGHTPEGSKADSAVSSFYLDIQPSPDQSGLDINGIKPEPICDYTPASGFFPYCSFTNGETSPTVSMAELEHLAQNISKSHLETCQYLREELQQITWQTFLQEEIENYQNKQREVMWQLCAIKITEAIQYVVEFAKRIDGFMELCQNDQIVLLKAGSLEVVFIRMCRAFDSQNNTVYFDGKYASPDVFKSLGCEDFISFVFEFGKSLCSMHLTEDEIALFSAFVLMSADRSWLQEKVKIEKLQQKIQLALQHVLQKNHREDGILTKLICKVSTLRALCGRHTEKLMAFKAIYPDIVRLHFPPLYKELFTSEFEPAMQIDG

[9] = Metabolic stability in human liver microsomes assessed as half life; type: ADME, Microsome
[10] = biological target: T3, Peroxisome proliferator-activated receptor gamma (Homo sapiens, UniProt P37231); experiment: Activation of PPARgamma LBD (unknown origin) co-expressed with Gal4UAS-luciferase reporter in HEK293 cells incubated for 24 hrs by Steady-Glo luciferase reporter gene based luminescence analysis; type: cell-based
T3 sequence (P37231 whole entry): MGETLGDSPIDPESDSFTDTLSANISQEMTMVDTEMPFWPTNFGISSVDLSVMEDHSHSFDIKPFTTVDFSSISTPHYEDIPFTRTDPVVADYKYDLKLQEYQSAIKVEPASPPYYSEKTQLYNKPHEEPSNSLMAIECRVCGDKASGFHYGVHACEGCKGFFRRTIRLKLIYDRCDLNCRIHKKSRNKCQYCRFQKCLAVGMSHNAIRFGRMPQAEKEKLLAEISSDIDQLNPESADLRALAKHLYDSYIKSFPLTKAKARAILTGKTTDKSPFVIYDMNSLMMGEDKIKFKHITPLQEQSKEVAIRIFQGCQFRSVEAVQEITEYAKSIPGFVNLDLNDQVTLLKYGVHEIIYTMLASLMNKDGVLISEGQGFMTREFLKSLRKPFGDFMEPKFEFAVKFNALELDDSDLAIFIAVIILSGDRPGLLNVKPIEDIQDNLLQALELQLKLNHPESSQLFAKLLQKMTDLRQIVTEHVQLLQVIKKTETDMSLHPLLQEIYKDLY

[11] = Plasma protein binding in C57B6 mouse assessed as unbound fraction at 1 mg/kg, iv; type: ADME, organism-based; details: in vivo
[12] = Oral bioavailability in C57B6 mouse at 2 mg/kg administered as solution; type: ADME, organism-based; details: in vivo
[13] = biological target: T4, Peroxisome proliferator-activated receptor delta (Homo sapiens, UniProt Q03181); experiment: Activation of PPARdelta LBD (unknown origin) co-expressed with Gal4UAS-luciferase reporter in HEK293 cells incubated for 24 hrs by Steady-Glo luciferase reporter gene based luminescence analysis; type: cell-based
T4 sequence (Q03181 whole entry): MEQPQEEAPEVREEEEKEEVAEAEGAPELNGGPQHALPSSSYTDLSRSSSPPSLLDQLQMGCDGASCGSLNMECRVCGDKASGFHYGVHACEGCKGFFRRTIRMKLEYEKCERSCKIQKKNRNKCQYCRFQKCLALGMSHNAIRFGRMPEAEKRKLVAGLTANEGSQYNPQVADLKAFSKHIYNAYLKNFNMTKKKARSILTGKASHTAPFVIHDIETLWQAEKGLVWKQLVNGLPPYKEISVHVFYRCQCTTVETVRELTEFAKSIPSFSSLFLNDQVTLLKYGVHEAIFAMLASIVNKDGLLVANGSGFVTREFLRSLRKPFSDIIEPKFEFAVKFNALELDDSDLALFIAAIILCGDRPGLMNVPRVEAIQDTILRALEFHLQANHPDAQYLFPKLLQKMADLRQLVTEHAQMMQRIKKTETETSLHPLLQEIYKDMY

[14] = Cmax in C57B6 mouse at 2 mg/kg, po administered as suspension; type: ADME, organism-based; set-up: route oral, dose 2 mg/kg; details: in vivo
[15] = Plasma concentration in mouse at 3 mg/kg, po measured after 6 hrs; type: ADME, organism-based
[16] = Half life in C57B6 mouse at 2 mg/kg, po administered as suspension; type: ADME, organism-based; details: in vivo
[17] = Clearance in C57B6 mouse at 1 mg/kg, iv; type: ADME, organism-based; details: in vivo

`O=C(O)c1cc(C(F)(F)F)c2cc(N3CCC4(C=C(c5c(-c6c(Cl)cncc6Cl)noc5C5CC5)C4)CC3)ccc2n1` showed a half-life [1] of 156 min, an IC50 [2] of over 40 µM and an IC50 [3] of over 40 µM. The bioavailability [4] was 26%, the Cmax [5] was 1220 nM and the AUC [6] was 4.76 µM·h. For the same compound, the half-life [7] was over 120 min, the IC50 [8] was over 40 µM and the half-life [9] was over 120 min. For the same compound, the EC50 [10] was over 40 µM, the Fu [11] was under 0.01% and the bioavailability [12] was 36%. The EC50 [13] was over 40 µM, the Cmax [14] was 1030 nM and the concentration at 6 h [15] was 37 nM. For the same compound, the half-life [16] was 120 min and the clearance [17] was 3.8 mL/min/kg.
